System: Plasmodium berghei
Experiment: Luciferase/luciferin-expressing antifolate-resistant parasites were used to infect a culture of HepG2 cells that were pre-incubated with compounds. Infected hepatocytes emit light due to the luciferase reaction. Assay results are presented as the percent inhibition of light emission compared to control. […]
Type: functional
Settings: sporozoite; for IC90: read-out: LUCIFERASE INFECTION ASSAY - IC90

O=C(Nc1ccc(OC(F)(F)F)cc1)c1c(-c2ccccc2)nnc2ccccc12
IC50 (FFLUC_HILL_SLOPE 2.82, FFLUC_R_SQUARED 0.654, HEPG2TOX_HILL_SLOPE 0.161, HEPG2TOX_R_SQUARED 0.349, PBLUC_HILL_SLOPE 0.343, PBLUC_R_SQUARED 0.11, read-out: LUCIFERASE INFECTION ASSAY - IC50): > 8.06 µM
IC90: > 8.06 µM

O=C1Nc2ccc(Cl)cc2/C1=C/c1ccc(-c2ccccc2)cc1
IC50 (FFLUC_HILL_SLOPE 2.74, FFLUC_R_SQUARED 0.354, PBLUC_HILL_SLOPE 5.72, PBLUC_R_SQUARED 0.824, read-out: LUCIFERASE INFECTION ASSAY - IC50): 8.45 µM
IC90: > 10 µM

Cc1cc(C2(c3cc(C)n(-c4ccccc4)c3C)CCC(C)CC2)c(C)n1-c1ccccc1
IC50 (FFLUC_HILL_SLOPE 2.77, FFLUC_R_SQUARED 0.531, read-out: LUCIFERASE INFECTION ASSAY - IC50): > 10 µM
IC90: > 10 µM

O=C(OC1(C(F)(F)F)C(=O)Nc2c1ccc1ccccc21)c1cccs1 (stereo not given)
IC50 (FFLUC_HILL_SLOPE 2.8, FFLUC_R_SQUARED 0.511, PBLUC_HILL_SLOPE 11.1, PBLUC_R_SQUARED 0.378, read-out: LUCIFERASE INFECTION ASSAY - IC50): 9.81 µM
IC90: > 10 µM

Cc1nc(C2(NC(=O)COc3ccc4ccccc4c3)CCCCC2)no1
IC50 (FFLUC_HILL_SLOPE 2.65, FFLUC_R_SQUARED 0.0928, read-out: LUCIFERASE INFECTION ASSAY - IC50): > 10 µM
IC90: > 10 µM

CC1(C)CC(=O)C(C(c2ccc(OCc3ccccc3)cc2)C2C(=O)CC(C)(C)CC2=O)C(=O)C1
IC50 (FFLUC_HILL_SLOPE 2.7, FFLUC_R_SQUARED 0.381, read-out: LUCIFERASE INFECTION ASSAY - IC50): > 10 µM
IC90: > 10 µM

Cc1ccc(/N=c2\scc(-c3cccc(C(F)(F)F)c3)n2/N=C/c2ccc3ncccc3c2)c(C)c1
IC50 (FFLUC_HILL_SLOPE 2.84, FFLUC_R_SQUARED 0.529, read-out: LUCIFERASE INFECTION ASSAY - IC50): > 10 µM
IC90: > 10 µM

CCOC(=O)c1c(-c2ccc(Br)cc2)cn2c(=O)/c(=C3\C=CC=CN3C)sc12
IC50 (FFLUC_HILL_SLOPE 2.7, FFLUC_R_SQUARED 0.575, PBLUC_HILL_SLOPE 2.12, PBLUC_R_SQUARED 0.479, read-out: LUCIFERASE INFECTION ASSAY - IC50): 7.05 µM
IC90: > 10 µM

CC(C)c1cc(C(C)C)c(S(=O)(=O)Nc2ccc(O)cc2)c(C(C)C)c1
IC50 (FFLUC_HILL_SLOPE 2.79, FFLUC_R_SQUARED 0.606, PBLUC_HILL_SLOPE 11.9, 14.6, PBLUC_R_SQUARED 0.380, 0.737, read-out: LUCIFERASE INFECTION ASSAY - IC50): 3.36 µM
IC90: 3.98 µM

COc1ccccc1-n1c(SCC(=O)NNC(=O)c2ccc([N+](=O)[O-])cc2)nc2ccccc2c1=O
IC50 (FFLUC_HILL_SLOPE 2.82, FFLUC_R_SQUARED 0.966, read-out: LUCIFERASE INFECTION ASSAY - IC50): > 10 µM
IC90: > 10 µM

COC(CNC(=S)c1c(-c2ccc(Cl)cc2)c2c3n(c(-c4cccc(S(=O)(=O)N5CCOCC5)c4)nn13)CCCC2)OC
IC50 (FFLUC_HILL_SLOPE 2.83, FFLUC_R_SQUARED 0.688, HEPG2TOX_HILL_SLOPE 16.1, HEPG2TOX_R_SQUARED 0.632, PBLUC_HILL_SLOPE 13, PBLUC_R_SQUARED 0.649, read-out: LUCIFERASE INFECTION ASSAY - IC50): 0.383 µM
IC90: 0.453 µM

CCOC(=O)c1c(NC(=O)CSc2nnc3n(-c4c(C)cccc4C)c(=O)c4ccccc4n23)sc(C(C)=O)c1C
IC50 (FFLUC_HILL_SLOPE 2.66, FFLUC_R_SQUARED 0.447, PBLUC_HILL_SLOPE 3.22, PBLUC_R_SQUARED 0.684, read-out: LUCIFERASE INFECTION ASSAY - IC50): 2.67 µM
IC90: 5.29 µM

O=[N+]([O-])c1ccc(-c2[nH]nc(-c3ccccc3)c2-c2ccc3ccccc3n2)cc1
IC50 (FFLUC_HILL_SLOPE 2.78, FFLUC_R_SQUARED 0.0561, HEPG2TOX_HILL_SLOPE 6.28, HEPG2TOX_R_SQUARED 0.62, PBLUC_HILL_SLOPE 3.02, PBLUC_R_SQUARED 0.452, read-out: LUCIFERASE INFECTION ASSAY - IC50): 4.75 µM
IC90: 9.84 µM

Cc1ccc(C2CC(c3cccs3)=NN2c2ccc(C=C(C#N)C#N)cc2)o1 (stereo not given)
IC50 (FFLUC_HILL_SLOPE 2.65, FFLUC_R_SQUARED 0.905, HEPG2TOX_HILL_SLOPE 1.94, HEPG2TOX_R_SQUARED 0.705, PBLUC_HILL_SLOPE 0.92, PBLUC_R_SQUARED 0.729, read-out: LUCIFERASE INFECTION ASSAY - IC50): 1.71 µM
IC90: > 10 µM

Cc1ccc(NC(=O)Nc2cnn(-c3ccc([N+](=O)[O-])cc3)c2C(F)(F)F)cc1F
IC50 (FFLUC_HILL_SLOPE 2.79, FFLUC_R_SQUARED 0.315, HEPG2TOX_HILL_SLOPE 0.0932, HEPG2TOX_R_SQUARED 0.068, PBLUC_HILL_SLOPE 11.4, PBLUC_R_SQUARED 0.0999, read-out: LUCIFERASE INFECTION ASSAY - IC50): 2.85 µM
IC90: 3.46 µM

C/N=c1\scc(-c2ccc(OC(F)F)cc2)n1/N=C/c1cccs1
IC50 (FFLUC_HILL_SLOPE 2.65, FFLUC_R_SQUARED 0.0605, PBLUC_HILL_SLOPE 1.58, PBLUC_R_SQUARED 0.688, read-out: LUCIFERASE INFECTION ASSAY - IC50): 0.676 µM
IC90: 2.72 µM

O=C(CSc1nnc(Nc2ccc(Oc3ccccc3)cc2)s1)c1cccs1
IC50 (FFLUC_HILL_SLOPE 2.69, FFLUC_R_SQUARED 0.808, PBLUC_HILL_SLOPE 3.49, PBLUC_R_SQUARED 0.557, read-out: LUCIFERASE INFECTION ASSAY - IC50): 2.33 µM
IC90: 4.38 µM

Cc1ccc(NC(=O)NC(=O)CSc2nccn2Cc2ccccc2)c(C)c1
IC50 (FFLUC_HILL_SLOPE 2.79, FFLUC_R_SQUARED 0.544, read-out: LUCIFERASE INFECTION ASSAY - IC50): > 10 µM
IC90: > 10 µM

CCOC(=O)c1c(C)noc1/C(C)=N/Nc1cc(C(F)(F)F)cc(C(F)(F)F)c1
IC50 (FFLUC_HILL_SLOPE 2.91, FFLUC_R_SQUARED 0.779, PBLUC_HILL_SLOPE 12.4, PBLUC_R_SQUARED 0.288, read-out: LUCIFERASE INFECTION ASSAY - IC50): > 7.8 µM
IC90: > 7.8 µM

CC(=O)NCCCc1ccc(C(=O)COC(=O)c2cc(Cl)c[nH]2)cc1
IC50 (FFLUC_HILL_SLOPE 2.83, FFLUC_R_SQUARED 0.674, read-out: LUCIFERASE INFECTION ASSAY - IC50): > 10 µM
IC90: > 10 µM

C/C(=N\NC(=S)NC(C)(C)C)c1cc(F)cc(Cl)c1O
IC50 (FFLUC_HILL_SLOPE 2.86, FFLUC_R_SQUARED 0.466, HEPG2TOX_HILL_SLOPE 2.1, HEPG2TOX_R_SQUARED 0.731, PBLUC_HILL_SLOPE 9.8, PBLUC_R_SQUARED 0.522, read-out: LUCIFERASE INFECTION ASSAY - IC50): 3.72 µM
IC90: 4.66 µM

Cc1ccc(-c2nn(-c3ccccc3)cc2/C=N/Nc2ncnc(N)c2[N+](=O)[O-])o1
IC50 (FFLUC_HILL_SLOPE 2.88, FFLUC_R_SQUARED 0.103, HEPG2TOX_HILL_SLOPE 0.791, HEPG2TOX_R_SQUARED 0.887, PBLUC_HILL_SLOPE 4.72, PBLUC_R_SQUARED 0.877, read-out: LUCIFERASE INFECTION ASSAY - IC50): 0.806 µM
IC90: 1.28 µM

CCOC(=O)c1c(N2C(=O)C=CC2=O)sc2c1CCCC2
IC50 (FFLUC_HILL_SLOPE 2.83, FFLUC_R_SQUARED 0.0392, read-out: LUCIFERASE INFECTION ASSAY - IC50): > 10.8 µM
IC90: > 10.8 µM

CC1=NN(c2ccccc2)C(=O)/C1=C\c1cc(C)n(-c2cc(C(F)(F)F)ccc2Cl)c1C
IC50 (FFLUC_HILL_SLOPE 2.69, FFLUC_R_SQUARED 0.551, PBLUC_HILL_SLOPE 5.7, PBLUC_R_SQUARED 0.538, read-out: LUCIFERASE INFECTION ASSAY - IC50): 7.1 µM
IC90: > 10 µM

C=C(C)CNC(=S)N/N=C1\C(=O)Nc2ccc([N+](=O)[O-])cc21
IC50 (FFLUC_HILL_SLOPE 2.67, FFLUC_R_SQUARED 0.288, PBLUC_HILL_SLOPE 15.8, PBLUC_R_SQUARED 0.124, read-out: LUCIFERASE INFECTION ASSAY - IC50): 8.97 µM
IC90: > 10 µM

COC(=O)C1C(c2ccc(N(C)C)cc2)C(C(=O)OC)S(=O)(=O)C(=NNc2ccc(OC)cc2[N+](=O)[O-])S1(=O)=O (stereo not given)
IC50 (FFLUC_HILL_SLOPE 2.66, FFLUC_R_SQUARED 0.775, read-out: LUCIFERASE INFECTION ASSAY - IC50): > 10 µM
IC90: > 10 µM

O=C1C(=O)N(Cc2cc3c(cc2Cl)OCO3)c2ccc(Cl)cc21
IC50 (FFLUC_HILL_SLOPE 2.77, FFLUC_R_SQUARED 0.777, PBLUC_HILL_SLOPE 11.7, PBLUC_R_SQUARED 0.0264, read-out: LUCIFERASE INFECTION ASSAY - IC50): 8.5 µM
IC90: > 9.42 µM

Cc1c(Cl)cnc(NC(=O)CSc2nnc(-c3ccccc3)o2)c1Cl
IC50 (FFLUC_HILL_SLOPE 2.78, FFLUC_R_SQUARED 0.409, HEPG2TOX_HILL_SLOPE 3.93, HEPG2TOX_R_SQUARED 0.284, PBLUC_HILL_SLOPE 2.91, PBLUC_R_SQUARED 0.621, read-out: LUCIFERASE INFECTION ASSAY - IC50): 1.35 µM
IC90: 2.88 µM

N#CC1C(=N)Oc2c3c(c4ccccc4c2C1c1ccc(Cl)cc1)C(c1ccc(Cl)cc1)C(C#N)C(=N)O3 (stereo not given)
IC50 (FFLUC_HILL_SLOPE 2.7, FFLUC_R_SQUARED 0.81, HEPG2TOX_HILL_SLOPE 15, HEPG2TOX_R_SQUARED 0.458, PBLUC_HILL_SLOPE 19.3, PBLUC_R_SQUARED 0.191, read-out: LUCIFERASE INFECTION ASSAY - IC50): 5.72 µM
IC90: > 6.14 µM

Nc1c(C(=O)N2CCOCC2)sc2nc3c(cc12)CCCCC3
IC50 (FFLUC_HILL_SLOPE 2.88, FFLUC_R_SQUARED 0.736, PBLUC_HILL_SLOPE 1.46, PBLUC_R_SQUARED 0.898, read-out: LUCIFERASE INFECTION ASSAY - IC50): 0.0939 µM
IC90: 0.424 µM
